Data from the OligoGym collection.
Where “and” joins values, the source holds several entries; their conditions need not be identical. Equal entries are not always repeated. After the bases stand the sugars from the 5' end (letter, count) and the backbone: PS all phosphorothioate, else s phosphorothioate and o phosphodiester by linkage. Methylation of C is not given here. k = constrained ethyl (cEt); d = 2'-deoxy (DNA)

Target: MALAT1
Conditions: ASO, A431, 0.005 µM

Sequence | target mRNA inhibition
TACATGTTCCCACCCA (sugars k3 d10 k3, PS) | 39%
TCGGTGCCTTTAGTGA (sugars k3 d10 k3, PS) | 29%
GTTCAACCCACCAAAG (sugars k3 d10 k3, PS) | 36%
ACCCTCTAAGAGACAT (sugars k3 d10 k3, PS) | 35%
GTTTACCACCTTTTGA (sugars k3 d10 k3, PS) | 3%
GCATCAAGGCACTGAT (sugars k3 d10 k3, PS) | 35%
TCACCGGAATTCGATC (sugars k3 d10 k3, PS) | -263%
TGTAGTTAATGTCAGC (sugars k3 d10 k3, PS) | 67% and 42%
GTTAACTAGGCTTTAA (sugars k3 d10 k3, PS) | 23%
AAGTTTTCAGCAGTAG (sugars k3 d10 k3, PS) | 8%
TCCCCTTCAAGCACCG (sugars k3 d10 k3, PS) | 19%
CCAGCATTACAGTTCT (sugars k3 d10 k3, PS) | 42%
GTATGACATATAATCT (sugars k3 d10 k3, PS) | 55% and 77%
ATGGCGGACTTTCTCC (sugars k3 d10 k3, PS) | 29%
AACTGGGAATACTCTT (sugars k3 d10 k3, PS) | 22%
CCGACCTCACGGATTT (sugars k3 d10 k3, PS) | 39%
GTAACAGGCCACTGCC (sugars k3 d10 k3, PS) | 14%
CCCTACTGAAGAGCAT (sugars k3 d10 k3, PS) | 13%
ACATTTGGCCTACTCA (sugars k3 d10 k3, PS) | 46%
AAGTAAGCCCCACCCC (sugars k3 d10 k3, PS) | 37%
TCCTTCTATAGTCTGA (sugars k3 d10 k3, PS) | 14%

Sequence | target mRNA inhibition
ATAAGGACAGCTAAGA (sugars k3 d10 k3, PS) | 8%
AACCAGGAGTGCCAAC (sugars k3 d10 k3, PS) | -23%
GCCGCAGGGATTTGAA (sugars k3 d10 k3, PS) | 31%
ACCCAGTTTGTCAATA (sugars k3 d10 k3, PS) | 10%
CTTTAAGCTGTTTAAG (sugars k3 d10 k3, PS) | -4%
ATCATAATCTCCCACC (sugars k3 d10 k3, PS) | 20%
CCCCCAACTGCTTGCA (sugars k3 d10 k3, PS) | 29%
ATCTTCACCACGAACT (sugars k3 d10 k3, PS) | 22%
TTCCGCTAAGATGCTA (sugars k3 d10 k3, PS) | 9%
CAATTAATGCTAGTCC (sugars k3 d10 k3, PS) | 28%
AATGCATTCTAATAGC (sugars k3 d10 k3, PS) | 17%
CCGTAACAGGCCACTG (sugars k3 d10 k3, PS) | 30%
CCCCCGGAACTTTTAA (sugars k3 d10 k3, PS) | -12%
ATTAAAGTGTGATAGT (sugars k3 d10 k3, PS) | 17%
AGCATTCCTTCGGATG (sugars k3 d10 k3, PS) | 14%
CGCTTTCCCTGTGGCC (sugars k3 d10 k3, PS) | -2%
CCTAGCTTCACCACCA (sugars k3 d10 k3, PS) | 33%
CTTATCTGTTAACAGC (sugars k3 d10 k3, PS) | 43%
CGCAATTCTCCCTGCG (sugars k3 d10 k3, PS) | 23%
TAAGGACAGCTAAGAT (sugars k3 d10 k3, PS) | 24%
GTCTCCGAAGACACAG (sugars k3 d10 k3, PS) | -5%

Sequence | target mRNA inhibition
ACAGCGGTACACTCCT (sugars k3 d10 k3, PS) | 42%
AAGCACTCATATGCAA (sugars k3 d10 k3, PS) | -2%
GTTGAGAAGTGGCAAA (sugars k3 d10 k3, PS) | 20%
GCTAAGATGCTAGCTT (sugars k3 d10 k3, PS) | 10%
TTACGAAAGTCCTTCA (sugars k3 d10 k3, PS) | 28%
TTCCGTTACGAAAGTC (sugars k3 d10 k3, PS) | 33%
TATTTCGGCTTCTTTT (sugars k3 d10 k3, PS) | 47% and 65%
ACACACTACCATATCC (sugars k3 d10 k3, PS) | -3%
CGCCTGCTACCTTCAT (sugars k3 d10 k3, PS) | 30%
AAATGGTAGATTCCGT (sugars k3 d10 k3, PS) | 60% and 62% and 50%
GCCCACCCTCTAAGAG (sugars k3 d10 k3, PS) | 18%
ACCGCACAGCTCGGGC (sugars k3 d10 k3, PS) | 5%
TCTTACTGGGTCTGGC (sugars k3 d10 k3, PS) | 45%
TCCCATAACTGATCTG (sugars k3 d10 k3, PS) | 31%
TTGAAACCGATTATGG (sugars k3 d10 k3, PS) | 42%
AAGGATGTATATAGTT (sugars k3 d10 k3, PS) | 21%
CAACACCCGGAAATCG (sugars k3 d10 k3, PS) | 18%
CTGCACTGTGCTGTAC (sugars k3 d10 k3, PS) | -5%
CTATAGCATCTGTGGA (sugars k3 d10 k3, PS) | 29%
TGATCCCAACTCATCT (sugars k3 d10 k3, PS) | 14%
ACCCAGAAGTGTTTAC (sugars k3 d10 k3, PS) | 16%

Sequence | target mRNA inhibition
GAGGCAAGTCCTCATT (sugars k3 d10 k3, PS) | 11%
CACCTTCCGCCGCCTT (sugars k3 d10 k3, PS) | -25%
CTGATAACGAAGAGAT (sugars k3 d10 k3, PS) | -3%
TGCTACTCTTCTAAGT (sugars k3 d10 k3, PS) | 19%
GACCTGCCTTCAGGCG (sugars k3 d10 k3, PS) | 13%
CTGACTTTGTATGTAA (sugars k3 d10 k3, PS) | 51%
AGAGGGCCTCTATTGC (sugars k3 d10 k3, PS) | 33%
TTAGAGAAGAATCCCC (sugars k3 d10 k3, PS) | 31%
GGAAAGCGAGTTCAAG (sugars k3 d10 k3, PS) | 24%
TAAATAAGGAGACAGC (sugars k3 d10 k3, PS) | 38%
AAAAGCTTGTTCACCT (sugars k3 d10 k3, PS) | 21%
TCCCATCACTGAAGCC (sugars k3 d10 k3, PS) | 44%
TTAAAAAGGCTCGATG (sugars k3 d10 k3, PS) | 21%
TTGGCCTACTCAAGCT (sugars k3 d10 k3, PS) | -8%
CTCAATCCACTTGATC (sugars k3 d10 k3, PS) | 32%
CCTTTTAAAGTAGACC (sugars k3 d10 k3, PS) | -22%
TGGCGATGTGGCAGAG (sugars k3 d10 k3, PS) | 35%
TCTGAACCGGAGCAGG (sugars k3 d10 k3, PS) | 19%
